Source: patent US6987093B2 (priority 2001, dated 2006)
Values after ≈ are worked out from the molar mass of the structure shown. Values joined by “and” are separate entries in the source; they are usually repeats but may differ in a detail not shown here. Equal entries are not always repeated.

How the values were obtained:
S. pneumoniae = assay: Single dose azithromycin pediatric AOM trial, subjects with S. pneumoniae at baseline; type: in vivo, human; conditions: for patients cured at day 28: 30 mg/kg
Text: Children six months to twelve years were enrolled if they had symptoms and signs of acute otitis media (“AOM”) for less than four weeks and middle ear effusion by acoustic reflectometry. Symptoms necessary for enrollment included ear pain or fullness, discharge from the external auditory canal, decreased hearing or fever. On physical examination they must have had one or more of the following: bulging or marked erythema of the tympanic membrane, loss of the normal light reflex or tympanic membrane landmarks, or impaired tympanic mobility on biphasic pneumatic otoscopy. The effusion was to be documented by acoustic reflectometry with an abnormal reading of 3 or higher.
Samples of middle ear fluid were obtained by tympanocentesis or, in the case of a perforated tympanic membrane, by swab. Middle ear fluid samples were obtained for culture at baseline. […] Children who vomited within thirty minutes of dosing were redosed.
Samples of middle ear fluid were split for storage at a central laboratory and cultured locally.
A phone contact occurred on study day 5 to assess for adverse events followed by visits on days 10 and 24–28, at which time detailed clinical assessments were made and adverse events were recorded. Definitions included clinical cure (complete resolution of all signs and symptoms of AOM); improvement (partial resolution of signs and symptoms); or failure (no change or worsening of signs and symptoms, or requirement for additional antibiotic therapy for AOM). Any patient considered to have failed therapy was to have a repeat tympanocentesis.
The primary endpoint of the trial was the investigator designated cure rate at Day 24–28 for which a 95% confidence interval was computed using the normal approximation to the binomial distribution. Other endpoints analyzed included the clinical response rate by baseline pathogen at Day 24–28, the overall clinical response at Day 10, the percentage of subjects with individual signs and symptoms, as well as findings from pneumatic otoscopy and acoustic reflectometry. Only Streptococcus pneumoniae, Moraxella catarrhalis and Haemophilus influenzae were considered baseline pathogens for the purposes of these analyses.
Not all strains are equally virulent and the growth rate and kinetics of infection may influence the outcome. In addition, H. influenzae has been a difficult organism to culture from the middle ear.

S. pneumoniae isolates = assay: Susceptibility (MIC) testing of trial S. pneumoniae isolates with PCR of resistance mechanism; type: cell-based, Streptococcus pneumoniae; conditions: Streptococcus pneumoniae
Text: (§1) Samples of middle ear fluid were split for storage at a central laboratory and cultured locally. All pathogens isolated locally were subcultured and sent to a central laboratory for confirmation and susceptibility testing, performed by Kirby-Bauer disk-diffusion or MIC testing according to NCCLS standards.
Polymerase chain reaction (PCR) determination of resistance mechanisms in all the azithromycin-resistant pneumococci was done.
(§2) Cultures were taken for antimicrobial susceptibility testing and bacterial species were identified. Current NCCLS approved breakpoints for MICs and zone sizes were applied to all data irrespective of the breakpoint in use at the time of the study. The isolates from the clinical studies were sent to central laboratories for identification and susceptibility determination. The methods for agar diffusion disk tests are those recommended by NCCLS.
(§3) The susceptibility breakpoints for azithromycin were defined as follows: […]

M. catarrhalis = assay: Susceptibility testing of trial M. catarrhalis isolates; type: cell-based, Moraxella catarrhalis; conditions: NCCLS criteria
Text: as §1, §2, §3

[1] = test system: Streptococcus pneumoniae 02J1016; assay: Murine lung (pulmonary/pneumonia) infection model challenged with Streptococcus pneumoniae; type: in vivo, mouse
[2] = test system: Streptococcus pneumoniae 02J1016; assay: Murine peritonitis model, Streptococcus pneumoniae; type: in vivo, mouse; conditions: oral QD
[3] = test system: Haemophilus influenzae 54A1100; assay: Gerbil middle ear (otitis media) infection model, ED50, H. influenzae 54A1100; type: in vivo
[4] = test system: Haemophilus influenzae 54A1100; assay: Gerbil middle ear infection in vivo time kill, H. influenzae 54A1100
[5] = test system: Haemophilus influenzae 54A1218; assay: Gerbil middle ear infection in vivo time kill, H. influenzae 54A1218; conditions: for eradication: at 72 and 96 hours post-infection
H. influenzae = assay: Study 95-001 otitis media caused by H. influenzae; type: in vivo, human; conditions: 3-day regimen (10 mg/kg/day); 13 patients; follow-up
Protocol: Specimens for culture and susceptibility testing were obtained from the infected ear by tympanocentesis within 24 h of start of therapy. […] However, the study was evaluated using the breakpoints in the most recent set of guidelines.
To be a bacteriological cure, the MITT subject had to have a positive culture from the middle ear for S. pneumoniae, H influenzae, or M. catarrhalis. Eradication was defined as presumed eradication of pretreatment pathogen(s) based on signs/symptoms or unavailability of culturable material. All evaluable patients had only one of the bacterial species present at baseline. There was no bacteriological response data collected for 95–001. However, the clinical outcome by bacterial pathogen at follow-up (approximately 28 days after first visit) was collected. For patients with S. pneumoniae as the baseline pathogen, all treatment arms yielded 100% clinical cure when the investigators' evaluations that were missing are not included in the analysis. […] The comparator drug, ceftriaxone, had no failures out of 9 patients.

Chlamydia trachomatis = conditions: azithromycin (± an anti-inflammatory agent); cited from earlier work
[6] = oral QD, murine pneumonia model
[7] = oral QD, gerbil otitis media model
[8] = 66.6 mg/kg/day oral Q.D. [3 days], 48 hours post-infection
[9] = 66.6 mg/kg/day oral Q.D. [3 days], 72 hours post-infection
[10] = 66.6 mg/kg/day oral Q.D. [3 days], 96 hours post-infection
[11] = 100 mg/kg/day oral Q.D. [2 days], 48 hours post-infection
[12] = 100 mg/kg/day oral Q.D. [2 days], 72 hours post-infection
[13] = 100 mg/kg/day oral Q.D. [2 days], 96 hours post-infection
[14] = 200 mg/kg/day oral Q.D. [1 day], 48 hours post-infection
[15] = 200 mg/kg/day oral Q.D. [1 day], 72 hours post-infection
[16] = 200 mg/kg/day oral Q.D. [1 day], 96 hours post-infection

Compound: CC[C@H]1OC(=O)[C@H](C)[C@@H](O[C@H]2C[C@@](C)(OC)[C@@H](O)[C@H](C)O2)[C@H](C)[C@@H](O[C@@H]2O[C@H](C)C[C@H](N(C)C)[C@H]2O)[C@](C)(O)C[C@@H](C)CN(C)[C@H](C)[C@@H](O)[C@]1(C)O [Azithromycin, 9a-aza-9a-methyl-9-deoxo-9a-homoerythromycin A]
- clinical cure rate versus susceptible S. pneumoniae isolates (S. pneumoniae; MICs≦0.25 μg/ml): 92.5%
- strains clinically cured (S. pneumoniae; human, in vivo): 40%
- patients cured at day 28 (S. pneumoniae; human, in vivo): two of these five
- Clinical cure at day 28, number of children (S. pneumoniae; nine children with penicillin resistant S. pneumoniae isolates (MIC≧2 μg/ml)): 6
- clinical cure rate versus resistant S. pneumoniae isolates (S. pneumoniae; resistant isolates): 66.7%
- patients cured at day 28 (S. pneumoniae; seven patients with mef A isolates (MIC 8 μg/ml), single 30 mg/kg dose): Six of these seven and 6/7
- MIC (S. pneumoniae isolates; macrolide-resistant S. pneumoniae isolates containing the erm B gene): > 256 µg/mL
- MIC (S. pneumoniae isolates; macrolide-resistant S. pneumoniae isolates containing the mef A gene): 8 µg/mL (≈ 10.7 µM)
- susceptibility of isolated M. catarrhalis to azithromycin (M. catarrhalis): susceptible
- Oral PD50 ([1]; Dosing Regimen 1 day): 20.4 (16.4–24.3) mg/kg/day
- Oral PD50 ([1]; Dosing Regimen 2 days): 27.6 (22.8–32.4) mg/kg/day
- Oral PD50 ([1]; Dosing Regimen 3 days): 49.4 (28.1–70.8) mg/kg/day
- Mice Surviving/Total ([1]; mouse, in vivo): 0/10 and 10/10 and 7/10 and 1/10 and 9/10 and 4/10
- ED50 One-Day Therapy [1, 6]: 20^1 mg/kg/therapy
- ED50 Three-Day Therapy [1, 6]: 49 mg/kg/therapy
- ED50 Two-Day Therapy [1, 6]: 27 mg/kg/therapy
- ED50 One-Day Therapy [2]: 8.7^1 mg/kg/therapy
- ED50 Three-Day Therapy [2]: 15.1 mg/kg/therapy
- ED50 Two-Day Therapy [2]: 7.6 mg/kg/therapy
- ED50 ([3]; Dosing Regimen 1 day): 138.1 (118.7–157.6) mg/kg/total
- ED50 ([3]; Dosing Regimen 2 days): 138.1 (118.7–157.6) mg/kg/total
- ED50 ([3]; Dosing Regimen 3 days): 162.9 (140–185.9) mg/kg/total
- ED50 One-Day Therapy [3, 7]: 138 mg/kg/therapy
- ED50 Three-Day Therapy [3, 7]: 163 mg/kg/therapy
- ED50 Two-Day Therapy [3, 7]: 138 mg/kg/therapy
- ED50 ([3]; past studies, Q.D. 3): 162.7 mg/kg/total regimen
- Recoverable CFU (Bulla) [Log10.Geo.Mean] (SEM) [4, 8]: 5.8817 (0.44) log of cfu-bulla wash/ml and 5.8817 log of cfu-bulla wash/ml
- Recoverable CFU (Bulla) [Log10.Geo.Mean] (SEM) [4, 9]: 4.5981 (0.14) log of cfu-bulla wash/ml and 4.5981 log of cfu-bulla wash/ml
- Recoverable CFU (Bulla) [Log10.Geo.Mean] (SEM) [4, 10]: 6.1520 (0.75) log of cfu-bulla wash/ml and 6.1520 log of cfu-bulla wash/ml
- Recoverable CFU (Bulla) [Log10.Geo.Mean] (SEM) [4, 11]: 5.7572 (0.54) log of cfu-bulla wash/ml and 5.7572 log of cfu-bulla wash/ml
- Recoverable CFU (Bulla) [Log10.Geo.Mean] (SEM) [4, 12]: <2.4580 (0.46) log of cfu-bulla wash/ml and <2.4580 log of cfu-bulla wash/ml
- Recoverable CFU (Bulla) [Log10.Geo.Mean] (SEM) [4, 13]: <3.1112 (1.11) log of cfu-bulla wash/ml and <3.1112 log of cfu-bulla wash/ml
- Recoverable CFU (Bulla) [Log10.Geo.Mean] (SEM) [4, 14]: <2.0000 log of cfu-bulla wash/ml
- Recoverable CFU (Bulla) [Log10.Geo.Mean] (SEM) [4, 15]: <2.0000 log of cfu-bulla wash/ml
- Recoverable CFU (Bulla) [Log10.Geo.Mean] (SEM) [4, 16]: <2.0000 log of cfu-bulla wash/ml
- eradication, test subjects ([4]; Q.D. 2 (100 mg/kg on day 1 and 2), at 72 and at 96 hours post-infection): 4/5
- eradication in any test subject ([4]; Q.D. 3 (66.6 mg/kg on day 1, 2 and 3), 72 and 96 hours post-infection): not observed
- Recoverable CFU (Bulla) [Log10.Geo.Mean] (SEM) [5, 8]: <5.2399 (1.21) log of cfu-bulla wash/ml and <5.2399 log of cfu-bulla wash/ml
- Recoverable CFU (Bulla) [Log10.Geo.Mean] (SEM) [5, 9]: <2.0000 log of cfu-bulla wash/ml
- Recoverable CFU (Bulla) [Log10.Geo.Mean] (SEM) [5, 10]: <2.0000 log of cfu-bulla wash/ml
- Recoverable CFU (Bulla) [Log10.Geo.Mean] (SEM) [5, 11]: <3.8587 (1.04) log of cfu-bulla wash/ml and <3.857 log of cfu-bulla wash/ml
- Recoverable CFU (Bulla) [Log10.Geo.Mean] (SEM) [5, 12]: <2.0000 log of cfu-bulla wash/ml
- Recoverable CFU (Bulla) [Log10.Geo.Mean] (SEM) [5, 13]: <2.0000 log of cfu-bulla wash/ml
- Recoverable CFU (Bulla) [Log10.Geo.Mean] (SEM) [5, 14]: <2.0000 log of cfu-bulla wash/ml
- Recoverable CFU (Bulla) [Log10.Geo.Mean] (SEM) [5, 15]: <2.0602 log of cfu-bulla wash/ml
- Recoverable CFU (Bulla) [Log10.Geo.Mean] (SEM) [5, 16]: <2.0000 log of cfu-bulla wash/ml
- eradication ([5]; Q.D. 2): eradication was observed
- eradication ([5]; Q.D. 3): eradication was observed
- % Clearance of Group ([5]; QD1, 48 hours post infection, <1 × 10^3 cfu/ml considered negative): 100%
- % Clearance of Group ([5]; QD1, 72 hours post infection): 100%
- % Clearance of Group ([5]; QD1, 96 hours post infection): 100%
- % Clearance of Group ([5]; QD2, 48 hours post infection): 40%
- % Clearance of Group ([5]; QD2, 72 hours post infection): 100%
- % Clearance of Group ([5]; QD2, 96 hours post infection): 100%
- % Clearance of Group ([5]; QD3, 48 hours post infection): 40%
- % Clearance of Group ([5]; QD3, 72 hours post infection): 100%
- % Clearance of Group ([5]; QD3, 96 hours post infection): 100%
- failures (H. influenzae): 2
- preserving fertility (Chlamydia trachomatis): superior to doxycycline and ofloxacin combinations
